No end group written: not given here.
Columns and labels:
σ1R-NR1 C1 = molecular target: T1, σ1R-NR1 C1 (Mus musculus, UniProt O55242); assay: In vitro σ1R-NR1 C1 association of recombinant proteins (Western blot); format: biochemical, murine; details: increasing concentrations; 30 min RT; vs control without ligand
T1 construct: The coding region of the full-length murine σ1R (AF004927); GST (N, cleaved yes); made in house; host or cells: E. coli BL21 (KRX)
Description: (§1) Figure 7 Effect of β-End 1–31, ^αN-acetyl β-End 1–31 and their N-terminal derivatives on σ1R-σ2R, σ1R-NR1 C1 and σ1R-BiP associations. Amino acid sequence of β-End 1–31 showing derivatives 1–26 and 1–27. (A) HaloLink-attached σ2Rs were incubated for 30 min at RT in the presence of σ1Rs (100 nM) in 300 μL of 50 mM Tris-HCl (pH 7.4), 0.2% CHAPS, and 2.5 mM CaCl2. After removing the unbound σ1R proteins, the effects of increasing the peptide concentrations on σ1R-σ2R associations were studied. At the end of the incubation, protein complexes bound to HaloLink-σ2R were obtained by centrifugation, washed three times, solubilized in 2× Laemmli buffer containing β-mercaptoethanol, resolved by SDS-PAGE, and analyzed by Western blotting (for more details, see Section 4). This protocol was also used to assess the effect of ligands on (B) σ1R-NR1 C1 and (C) σ1R-BiP associations. Data were compared to that of the control, which was obtained in the absence of ligands. (A–C) Data are the mean ± SD, n = 3. (D) The β-End 1–31 structural models were predicted by Novafold (DNASTAR Lasergene protein v.17, Inc., Madison, WI, USA). Ribbon model: The 3D structure, charge distribution and hydrophobicity map of β-End 1–31 are shown. Positive charges are shown in red and negative charges in blue. Polar surfaces are shown in yellow, and nonpolar surfaces are shown in orange. Linear model: the opioid (1–5) and flexible region (8–11) sequences are shown in green and orange, respectively, and the amphiphilic helix (15–25) is shown in pink.
(§2) The recombinant σ1R (100 nM) was incubated either with Haloprotein (negative control) or together with the immobilized σ2R, NR1 C0-C1-C2 or BiP proteins in 300 µL of a buffer containing 50 mM Tris-HCl (pH 7.4) and 0.2% CHAPS in the presence of 2.5 mM CaCl2 for 30 min at RT. After removal of the unbound σ1R, the agarose-attached complexes were incubated for 30 min with rotation at RT in the presence of increasing concentrations of the ligands in a final reaction volume of 300 µL [50 mM Tris-HCl (pH 7.4), 2.5 mM CaCl2 and 0.2% CHAPS]. Ligands were usually dissolved in aqueous solutions; however, when an organic solvent such as DMSO was required to incorporate, e.g., pregnenolone sulfate, the solvent remained below 1% in the assay buffer. Agarose pellets containing the bound proteins were obtained by centrifugation, washed and resuspended thrice in the presence of 2.5 mM CaCl2, solubilized in 2× Laemmli buffer plus β-mercaptoethanol, and analyzed by Western blotting.
(§3) Because all the assays were performed with recombinant proteins, the immune signals provided a single band of the expected size, which was used for the subsequent densitometry analysis. Accordingly, no other regions of the blots provided information and were routinely excluded from the analysis.
Figure S8. Effect of the physiological and nonphysiological sequences of β-End 1-31 and classical σ1R ligands on BiP-σ1R, σ2R-σ1R and NR1 C1-σ1R associations . […]
D) Agarose-NR1 C1 loaded with […]
σ1Rs were incubated in the absence (control) and with nonphysiological derivatives of β-End 1-31. A-D) The σ1Rs that remained attached to the agarose complexes were evaluated by Western blotting. The […]
(§4) (1 picture or pasted object on this page, not shown here)
Figure S9. Effect of σ1R agonist/antagonist ligands on σ1R-NR1 C1 associations. Θ-Agarose-NR1 C1 was loaded with recombinant σ1Rs. After unbound σ1R proteins were removed, the complexes were incubated with (A) 1 nM β-End 1-31, (B) αN-acetyl β-End 1-31, (C-D) β-End 28-31 in the absence (black columns) and presence of (A) 10 nM or (B-D) increasing concentrations of competing σ1R ligands as indicated. The σ1Rs that remained attached to the Θ-σ2Rs were evaluated by Western blotting. The […]
Prog is progesterone; PregSulfate is pregnenolone sulfate; Nac is […]

σ1R-BiP = molecular target: T2, σ1R-BiP (Mus musculus, UniProt O55242); assay: In vitro σ1R-BiP association of recombinant proteins (Western blot); format: biochemical; details: for effect on σ1R-BiP association: increasing concentrations, 30 min RT, vs control without ligand; for activity at σ1R-BiP against agonists / β-End 1–31: 1 nM β-End 1–31 with increasing competitor (Figure S10)
T2 construct: The coding region of the full-length murine σ1R (AF004927); GST (N, cleaved yes); host or cells: E. coli BL21 (KRX) for σ1R
Description: as §1, §2, §3
Figure S8. Effect of the physiological and nonphysiological sequences of β-End 1-31 and classical σ1R ligands on BiP-σ1R, σ2R-σ1R and NR1 C1-σ1R associations . Agarose-BiP was loaded with σ1Rs, and after the unbound σ1Rs were removed, the agarose-BiP-σ1R complexes were incubated in the absence (control) and presence of increasing concentrations of (A) β-End 1-31 C-terminal physiological derivatives and (B) classical σ1R ligands. C) Agarose-σ2R loaded with σ1Rs was incubated in the absence (control) and with nonphysiological derivatives of β-End 1-31. D) Agarose-NR1 C1 loaded with σ1Rs were incubated in the absence (control) and with nonphysiological derivatives of β-End 1-31. A-D) The σ1Rs that remained attached to the agarose complexes were evaluated by Western blotting. The […]
as §4
Figure S10. Effect of σ1R agonist/antagonist ligands on σ1R-BiP associations. Agarose-attached BiP proteins were incubated for 30 min in the presence of recombinant σ1R (100 nM) proteins in 300 μL of 50 mM Tris-HCl (pH 7.4), 0.2% CHAPS, and 2.5 mM CaCl2. After the unbound σ1R proteins were […]

σ1R-σ2R = σ1R-σ2R (Mus musculus, UniProt O55242); assay: In vitro σ1R-σ2R association of recombinant proteins (HaloLink-σ2R, Western blot); format: biochemical, murine; design: The coding region of the full-length murine σ1R (AF004927); GST (N, cleaved yes); made in house; host or cells: E. coli BL21 (KRX); details: increasing concentrations; 30 min RT; vs control without ligand
Description: as §1, §2, §3
Figure S7. Effect of σ1R agonist/antagonist ligands on σ1R-σ2R heterodimers. (A-C) Agarose (Θ)- attached σ2Rs captured recombinant σ1Rs. After removing unbound σ1R proteins, the Θ-σ2R.σ1R complexes were incubated with a ﬁxed concentration of a selected L1 ligand (indicated in brackets) in the absence and presence of increasing concentrations of competing σ1R ligands as indicated. The σ1Rs that remained attached to the Θ-σ2Rs were evaluated by Western blotting. * Signiﬁcant differences with respect to the control group that was incubated without L1 ligands. ANOVA followed by the Holm-Sidak multiple comparisons test, p < 0.05. For details, see Methods and Figure 6A. Representative blots are […]
Figure S8. Effect of the physiological and nonphysiological sequences of β-End 1-31 and classical σ1R ligands on BiP-σ1R, σ2R-σ1R and NR1 C1-σ1R associations . Agarose-BiP was loaded with σ1Rs, and after the unbound σ1Rs were removed, the agarose-BiP-σ1R complexes were incubated in the absence (control) and presence of increasing concentrations of (A) β-End 1-31 C-terminal physiological derivatives and (B) classical σ1R ligands. C) Agarose-σ2R loaded with σ1Rs was incubated in the […]

T1 sequence (O55242 whole entry): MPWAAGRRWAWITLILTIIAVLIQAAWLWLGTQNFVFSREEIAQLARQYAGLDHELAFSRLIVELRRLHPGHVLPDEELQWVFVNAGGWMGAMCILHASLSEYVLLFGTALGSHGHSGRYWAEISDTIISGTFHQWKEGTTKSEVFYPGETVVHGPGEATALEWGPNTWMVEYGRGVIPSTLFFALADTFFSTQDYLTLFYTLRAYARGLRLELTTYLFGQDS
T2 sequence (O55242 whole entry): as above
σ1R-σ2R, sequence (O55242 whole entry): as above

Compound	effect on σ1R-NR1 C1 association (σ1R-NR1 C1)	effect on σ1R-BiP association (σ1R-BiP)	effect on σ1R-σ2R association (σ1R-σ2R)	activity at σ1R-BiP against agonists / β-End 1–31 (σ1R-BiP)
CC(=O)[C@H]1CC[C@H]2[C@@H]3CCC4=CC(=O)CC[C@]4(C)[C@H]3CC[C@]12C [progesterone, Progesterone, reference compound]	did the opposite	did the opposite	did the opposite	
Pregnenolone sulfate [reference compound]	increased σ1R-NR1 C1 complexes	impaired σ1R associations with σ2R and BiP	impaired σ1R associations with σ2R and BiP	
^αN-acetyl β-End 1–26: ^αN-acetylated form of β-End 1–26 (Ac-YGGFMTSEKSQTPLVTLFKNAIIKNA; UniProt P01189 237-262, looked up, fragment)	separated σ1Rs from NR1 C1 subunits at pM concentrations	promoted σ1R-BiP complexes		antagonist activity
^αN-acetyl β-End 1–27: ^αN-acetylated form of β-End 1–27 (Ac-YGGFMTSEKSQTPLVTLFKNAIIKNAY; UniProt P01189 237-263, looked up, fragment)		promoted σ1R-BiP complexes		antagonist activity
